The values below come from ChEMBL document CHEMBL1127956, “Tetrahydroisoquinoline as a phenylalanine replacement in renin inhibitors” (Bioorg Med Chem Lett, 1994).

The target in assay [1] is T1, Renin (Homo sapiens) (UniProt P00797).
T1 sequence (whole entry): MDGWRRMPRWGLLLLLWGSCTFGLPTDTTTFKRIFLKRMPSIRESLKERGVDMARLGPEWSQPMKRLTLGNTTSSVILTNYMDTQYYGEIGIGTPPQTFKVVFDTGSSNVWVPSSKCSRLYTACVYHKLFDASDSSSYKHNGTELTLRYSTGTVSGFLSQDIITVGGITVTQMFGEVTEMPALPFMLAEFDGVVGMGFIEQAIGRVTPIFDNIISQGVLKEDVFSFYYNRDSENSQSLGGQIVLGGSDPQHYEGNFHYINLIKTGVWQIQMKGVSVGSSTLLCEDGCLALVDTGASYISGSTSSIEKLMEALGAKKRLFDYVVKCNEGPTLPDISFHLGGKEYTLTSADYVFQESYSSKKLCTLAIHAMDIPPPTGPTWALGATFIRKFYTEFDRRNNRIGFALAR
As to the kind of experiment: In vitro inhibitory activity against monkey plasma renin was determined at 10e-6 M. Conditions: Cercopithecidae, target entry is the homologue from another species. Format: cell-free.

Assay [2] deals with T2, Renin (Homo sapiens, UniProt P00797).
T2 sequence (P00797 whole entry): T1 sequence (whole entry)
As to the kind of experiment: In vitro inhibitory activity against monkey plasma renin. Format: cell-free, Cercopithecidae. The settings on record: target entry is the homologue from another species.

SMILES strings stand for the structures.

What is called inhibition is how much of the control response was suppressed. Regarding `CC(C)C[C@H](O)[C@H](O)[C@H](CC1CCCCC1)NC(=O)CCC(=O)[C@@H]1Cc2ccccc2CN1C(=O)OC(C)(C)C`, the inhibition in assay [1] stood at 9.8%.
In general, IC50 refers to the concentration that gives 50% inhibition. Compound `C=CC[C@H](NC(=O)[C@H]1Cc2ccccc2CN1C(=O)OC(C)(C)C)C(=O)N[C@@H](CC1CCCCC1)[C@@H](O)[C@@H](O)CC(C)C` gave an IC50 in assay [2] of 325 nM.
In turn, `CC(C)C[C@H](O)[C@H](O)[C@H](CC1CCCCC1)NC(=O)CNC(=O)[C@@H]1Cc2ccccc2CN1C(=O)OC(C)(C)C` had an inhibition in assay [1] of 11.9%.
Regarding `CC(C)C[C@H](O)[C@H](O)[C@H](CC1CCCCC1)NC(=O)CNC(=O)[C@H](Cc1ccccc1)NS(=O)(=O)N1CCOCC1`, half-maximal inhibition in assay [2] (IC50) was put at 3.6 nM.
`C=CC[C@H](NC(=O)[C@@H]1Cc2ccccc2CN1C(=O)OC(C)(C)C)C(=O)N[C@@H](CC1CCCCC1)[C@@H](O)[C@@H](O)CC(C)C` showed an IC50 in assay [2] of 146 nM.
Regarding `C=CC[C@H](NC(=O)[C@@H]1Cc2ccccc2CN1)C(=O)N[C@@H](CC1CCCCC1)[C@@H](O)[C@@H](O)CC(C)C`, half-maximal inhibition in assay [2] (IC50) required 11.5 nM.
`C=CC[C@H](NC(=O)[C@H](Cc1ccccc1)NC(=O)OC(C)(C)C)C(=O)N[C@@H](CC1CCCCC1)[C@@H](O)[C@@H](O)CC(C)C` yielded an IC50 in assay [2] of 0.42 nM.
The compound `C=CC[C@H](NC(=O)[C@H]1Cc2ccccc2CN1)C(=O)N[C@@H](CC1CCCCC1)[C@@H](O)[C@@H](O)CC(C)C` registered an IC50 in assay [2] of 373 nM.
In turn, `C=CC[C@H](NC(=O)[C@@H]1Cc2ccccc2CN1S(=O)(=O)N1CCOCC1)C(=O)N[C@@H](CC1CCCCC1)[C@@H](O)[C@@H](O)CC(C)C` registered an IC50 in assay [2] of 2.89 nM.
Regarding `CC(C)C[C@H](O)[C@H](O)[C@H](CC1CCCCC1)NC(=O)CCC(O)[C@@H]1Cc2ccccc2CN1C(=O)OC(C)(C)C` (stereo partly specified), the inhibition in assay [1] turned out to be 0%.
`CC(C)C[C@H](O)[C@H](O)[C@H](CC1CCCCC1)NC(=O)CNC(=O)[C@@H]1Cc2ccccc2CN1S(=O)(=O)N1CCOCC1` showed an IC50 in assay [2] of 101 nM.
